These results are taken from article PMC10856454, “Discovery of Novel Antitumor Small-Molecule Agent with Dual Action of CDK2/p-RB and MDM2/p53” (Molecules, 2024).

The test system of series [1] is MDM2 mRNA in OVCAR3 cells. As to the kind of experiment: q-PCR of MDM2 mRNA after III-13 treatment. Particulars: q-PCR after 12 h of treatment. The format is cell-based, human. From the text:
RNA was reverse transcribed with the HiScript Q RT SuperMix for qPCR (Vazyme, Nanjing, China), and quantitative real-time PCR (qPCR) was applied using SYBR Green qPCR Mix (SparkJade, Jinan, China) on the ABI Prism 7500 Fast Real-Time PCR System (Applied Biosystems, Carlsbad, CA, USA) following the manufacturer’s protocols. The comparative CT method (ΔΔCt) was used to calculate gene expression differences, with GAPDH as the reference gene. The following primers were used (human): • ZNF311 (sense, 5′-3′): […] • ZNF311 (antisense, 5′-3′): […] • TBX15 (sense, 5′-3′): […] • TBX15 ([…], 5′-3′): […] • ZNF784 (sense, 5′-3′): […] • ZNF784 (antisense, 5′-3′): […] • SIX3 (sense, 5′-3′): […] • SIX3 (antisense, 5′-3′): […] • KLLN (sense, 5′-3′): […] • KLLN (antisense, 5′-3′): […] • P2RY1 (sense, 5′-3′): […] • P2RY1 (antisense, 5′-3′): […] • MSH4 (sense, 5′-3′): […] • MSH4 (antisense, 5′-3′): […] • STAR (sense, 5′-3′): […] • STAR (antisense, 5′-3′): […] • SUMO4 (sense, 5′-3′): […] • SUMO4 (antisense, 5′-3′): […] • ZC3H12D (sense, 5′-3′): […] • ZC3H12D (antisense, 5′-3′): […] • CCNE1 (sense, 5′-3′): […] • CCNE1 (antisense, 5′-3′): […] • MDM2 (sense, 5′-3′): […] • MDM2 (antisense, 5′-3′): […] • GAPDH (sense, 5′-3′): […] • GAPDH (antisense, 5′-3′): […]

The test system of series [2] is HCT116 cells. As to the kind of experiment: Cell scratch test (migration), HCT116. The format is cell-based. Particulars: 24 h. As for the experimental part: Cells were inoculated into six-well plates as long as they spread to the bottom of the wells after wall attachment. After 24 h of wall attachment, cells were scratched with a 200 μL pipette tip and then replaced with low serum medium (1% FBS) containing different concentrations of compounds. Spot photographs were taken at 0 h and 24 h after the scratch was made. Data analysis was performed using Adobe Photoshop 2021 (Adobe Systems Software Ireland Ltd., San Jose, CA, USA) and Image J2 (National Institutes of Health, Bethesda, MD, USA).

The test system of series [3] is OVCAR3 cells. As to the kind of experiment: Cell cycle detection by flow cytometry, OVCAR3. The format is cell-based. Particulars: 24 h. As for the experimental part: Cells were plated at 300,000 cells overnight in six-well plates. III-13 was added in a dose-dependent fashion and then cells were incubated for 24 h. The cells were then fixed with 75% ethanol overnight at 4 °C. The cells were centrifuged, and ethanol was removed. The cells were washed twice with 1 × PBS following staining with DAPI (4′, 6′ diamino-2-phenylindole) and analyzed using Guava easyCyte HT (Merck KGaA, Darmstadt, Germany) with a blue filter. Experiments were performed in triplicate.

In series [4] the test system is OVCAR3 cells. As to the kind of experiment: Colony formation, OVCAR3. Particulars: 14 days. The class given is cell-based. As for the experimental part: (§1) Cells were inoculated in six-well plates at 1000 cells per well, and III-13 was added in a dose-dependent manner after 24 h. Cells were stained with Crystal Violet Staining Solution (Beyotime, Shanghai, China) at 14 days after incubation, and the cell colonies were counted using Image J.

The subject of series [5] is HCT116 cells. Description: Colony formation, HCT116. The class given is cell-based. As to conditions: 14 days. As for the experimental part: as §1
The next series relates to TOV-21G cells. Description: Cell proliferation assay (Celltiter-Glo), TOV-21G. The format is cell-based. Particulars: Homo sapiens, TOV21G, 72 h; TOV-21G (normal expression of CCNE1), three days. As for the experimental part:
Celltiter-Glo Luminescent Cell Viability Assay (Promega, Madison, WI, USA) was used to detect cell viability according to the manufacturer’s instructions. This assay is a homogeneous method of determining the number of viable cells in a culture based on quantitation of the ATP present, an indicator of metabolically active cells. Cells were digested and paved in white-bottomed 96-well plates with 1000 cells/100 μL cell suspension solution; then, different concentrations of compounds were added the next day. TOV-21G and HCT116 were placed in the incubator for three days and OVCAR3 for five days. Then, 100 μL Celltiter-Glo solution was added and mixed for 5 min; the luminous intensity of each well was detected with a spectrophotometer (BioTek, Winooski, VT, USA). The experiment was repeated three times to calculate the cell survival rate.
For orientation: In ATP-based viability assays light output follows the ATP content of the culture.

Another series deals with T1, CDK6 (Homo sapiens, UniProt Q00534).
T1 construct: purchased Thermo Fisher Scientific
As to the kind of experiment: Kinase antagonist activity assay (TR-FRET), CDK6. The class given is biochemical. As for the experimental part:
The compounds were solubilized with DMSO (Solarbio Life Sciences, Beijing, China), and 11 concentrations were serially diluted at 3-fold; 100 nL of compound was added to 384-well plates, 5 μL of 2 × enzyme mixture (Thermo Fisher Scientific, Waltham, MA, USA) was added, and 5 μL of buffer was added instead of the complete inhibition control wells. Then, 1000 rpm centrifugation was performed for 30 s followed by a 15 min incubation at 23 °C. Next, 5 μL of 2 × MLight-MBP peptide (PerkinElmer, Waltham, MA, USA) was added to each well, with 1000 rpm centrifugation for 30 s and incubation at 23 °C for 90 min. At the end of the incubation, the reaction was terminated with buffer containing 15 mM EDTA and 2 nM Eu-anti-P-MBP antibody (PerkinElmer, Waltham, MA, USA), centrifuged at 1000 rpm for 1 min, and incubated at 23 °C for 60 min; the plates were read on a Perkin Elmer Envision ([…]).
Background: In TR-FRET formats the signal depends on donor and acceptor labels being close together.

A short description of series [6]: Liver microsomal stability, human. The class given is in vitro ADME. As to conditions: Human liver microsomes. As for the experimental part: Compounds were incubated with mouse, rat, and human liver microsomal samples and NADPH at 37 °C for 5, 10, 20, 30, or 60 min. The reaction was terminated with a cold acetonitrile solution containing tolbutamide. Compound retention was determined by LC-MS/MS. The retention times, chromatographic acquisition, and chromatographic integration of compounds and positive control substances were analyzed using Analyst (AB Sciex, Framingham, MA, USA).
On the technique in general: Microsomes from liver hold many membrane-bound enzymes, among them those of drug oxidation.

The subject of series [7] is p-Rb, p-CDK2 in HCT116 cells. Description: Western blot of CDK2 pathway proteins in HCT116 cells. The format is cell-based. As for the experimental part: Total protein from HCT116, OVCAR3 cells and tissues was collected and homogenized in RIPA buffer. The total cellular protein extract was electrophoresed on 12% SDS-polyacrylamide gels and then transferred to a PVDF membrane (Thermo Fisher Scientific, Waltham, MA, USA). Primary antibodies were incubated overnight at 4 °C and secondary antibodies were incubated at room temperature for 1.5 h. Imaging was performed using Image Quant LAS4000 (GE, Boston, MA, USA).

T1 sequence (Q00534 whole entry): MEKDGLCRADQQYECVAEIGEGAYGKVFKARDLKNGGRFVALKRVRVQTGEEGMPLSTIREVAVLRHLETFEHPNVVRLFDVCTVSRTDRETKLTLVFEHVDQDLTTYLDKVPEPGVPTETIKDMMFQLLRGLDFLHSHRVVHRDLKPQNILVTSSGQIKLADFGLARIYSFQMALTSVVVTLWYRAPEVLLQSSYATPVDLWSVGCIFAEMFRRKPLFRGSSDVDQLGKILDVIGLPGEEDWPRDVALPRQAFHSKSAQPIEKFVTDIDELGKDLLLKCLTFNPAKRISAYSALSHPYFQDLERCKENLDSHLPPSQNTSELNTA
T1 sequence (P24385 whole entry partner): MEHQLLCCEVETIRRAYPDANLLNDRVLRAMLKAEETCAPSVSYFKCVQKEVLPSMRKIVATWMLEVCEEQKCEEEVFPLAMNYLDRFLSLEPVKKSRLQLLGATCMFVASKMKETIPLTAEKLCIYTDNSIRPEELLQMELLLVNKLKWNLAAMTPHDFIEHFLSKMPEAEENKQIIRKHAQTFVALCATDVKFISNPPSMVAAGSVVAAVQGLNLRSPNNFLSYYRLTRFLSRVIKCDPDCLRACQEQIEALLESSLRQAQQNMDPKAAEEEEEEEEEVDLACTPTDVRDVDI

Usually IC50 stands for the concentration needed to halve the response being measured. Low values mean greater potency in that assay, high ones weaker potency in that assay. Broadly, the IC90 is the point of the concentration-response curve where the effect stands at 90%. Usually CLint scaled stands for the rate of metabolic loss divided by the concentration. One may read the half-life as how long it takes for the measured level to halve. The low end stands for rapid decline, the high end for slow decline. Turning to `CC1(C)CCN1C(=O)O[C@@H]1CC[C@H](c2cc(NC(=O)Cc3ccc(N4CCCC4=O)cc3)n[nH]2)C1` [III-13], the “MDM2 mRNA expression” value in series [1] was “significantly inhibited”. In addition, the migration rate entry in the series with HCT116 cells [2] is given as “decreased significantly”. For the same compound, the cell cycle arrest result in the series with OVCAR3 cells [3] is “arrested HCT116 and OVCAR3 cells in the G0/G1 phase”. The number of colonies result with OVCAR3 cells [4] is reported as “significant reduction”. Besides, the number of colonies result in the series on HCT116 cells [5] was “significant reduction”. This compound had an IC50 in the series with TOV-21G cells of 164 nM. Further, on CDK6, the IC50 was 1300 nM and the 90% effect concentration (IC90) came out at 16000 nM. For the same compound, the CLint scaled in series [6] came out at 59.9 mL/min/kg. For the same compound, the “Remaining (T = 60 min)” value in series [6] (60 min) worked out at 15.4%. This compound had a half-life in series [6] (NADPH, 37 °C) of 21.9 min. Besides, in [7], the “expression of p-Rb” value is “significantly reduced” and the p-CDK2 expression entry is reported as “no significant effect”.
